According to BindingDB's records for doi:10.1016/0960-894X(96)00323-X (1996):

Test: Inhibition of Phosphodiesterase 5 from human corpus cavernosum

IC50 [nM]	SMILES
2.1	CCCc1nn(C)c2c(=O)[nH]c(-c3cc(S(=O)(=O)N4CCN(C(N)=O)CC4)ccc3OCC)nc12 [4-[4-Ethoxy-3-(1-methyl-7-oxo-3-propyl-6,7-dihydro-1H-pyrazolo[4,3-d]pyrimidin-5-yl)-benzenesulfonyl]-piperazine-1-carboxylic acid amide]
1000	CCCc1[nH]nc2c(=O)[nH]c(-c3ccccc3O)nc12 [5-(2-Hydroxy-phenyl)-3-propyl-1,6-dihydro-pyrazolo[4,3-d]pyrimidin-7-one]
4500	CCCc1[nH]nc2c(=O)[nH]c(-c3ccccc3)nc12 [5-Phenyl-3-propyl-1,6-dihydro-pyrazolo[4,3-d]pyrimidin-7-one]
19	CCCc1nn(C)c2c(=O)[nH]c(-c3cc(S(=O)(=O)N4CCN(CCO)CC4)ccc3OCC)nc12 [5-{2-Ethoxy-5-[4-(2-hydroxy-ethyl)-piperazine-1-sulfonyl]-phenyl}-1-methyl-3-propyl-1,6-dihydro-pyrazolo[4,3-d]pyrimidin-7-one]
